Experimental data from patent US10925858B2, “S-nitrosoglutathione (GSNO) and GSNO reductase inhibitors for use in therapy” (MUSC FOUNDATION FOR RESEARCH DEVELOPMENT, priority 2017, dated 2021).

Tests used:
lymphocytes in blood = test: Total lymphocyte count in blood of normal mice (lymphopenic effect); assay type: in vivo, C57BL/6 mice; settings: normal mice without EAE, 1 mg/kg/day for 19 days
Description: The bloods collected in EDTA blood collection tubes (BD Biosciences) were analyzed by an automated hematology analyzer for counting total lymphocytes. For counting of each subset of lymphocytes, 50 μl of blood was mixed with staining buffer (20 μl) containing fluorescence labelled antibodies and red-blood-cells were lysed with FACS lysing solution (BD Biosciences) prior to fluorescence flow-cytometric analysis. For staining of CD3+, CD4+, and CD8+ cells, allophycocvanin (APC)-labeled anti-mouse CD3 (eBioscience clone 17A2), Fluorescein isothiocyanate (FITC)-labeled anti-mouse CD4 (eBioscience clone RM4-5), APC-labeled anti-mouse CD8 (eBioscience clone 53-6.7) and appropriate isotype matched controls.

[1] = system: protein associated S-nitrosothiols; test: Biotin-switch analysis of protein associated S-nitrosothiols in spleens of EAE mice; assay type: in vivo, C57BL/6 mice; settings: vs control and EAE mice
Description: Female C57BL/6 mice of 8-12 weeks of age, purchased from Jackson Laboratory, were provided with food and water ad libitum and were kept in pathogen free animal care facility of Medical University of South Carolina (MUSC) throughout the study. All procedures were conducted in accordance with accepted standards of humane care as approved by the Institutional Animal Care and Use Committee (Approved number: AR #1644). EAE was induced as described previously (Nath et al., 2009). Briefly, mice were immunized subcutaneously in the flank regions with MOG35-55 peptide (MOG; 200 μg; Peptide International) emulsified (1:1) in 100 ul complete Freund's adjuvant (CFA) on day 0 and day 7. Additionally, 300 ng of Pertussis toxin (Sigma-Aldrich, St. Louis, Mo.) was given on day 0 and day 2 by i.p. injection. […] Clinical signs of EAE were scored by examiners blinded to experimental treatments using the following scale: 0=no clinical signs of disease; 1=piloerection and sluggish; 2=limp tail (ataxia); 2.5=ataxia with partial hind limb paralysis; 3=full paralysis of hind limb; 3.5=full paralysis of hind limb with paralysis of one fore limb; 4=full paralysis of two limbs; 4.5=moribund stage; 5=death. […]
Protein S-Nitrosylation was detected using the biotin-switch method with slight modification as described in our previous study (Kim et al., 2014). […]

myosin light chain (MLC) = test: Western analysis of MLC phosphorylation (Ser19) in thrombin treated hBMVECs; assay type: cell-based, human; settings: thrombin 0.1 unit/ml 5 min; L-NIO or FeTPPS 10 μM; GSNO or SIN-1 various concentrations
Description: Cell culture: Primary human brain microvascular endothelial cells (hBMVECs) were purchased from Angio-Proteomie (Cat #: cAP-0002, Atlanta, Ga.). The cells were cultured in cell culture flasks or plates precoated with Quick Coating Solution (Angio-Proteomie; Cat #: cAP-01) and maintained in Endothelial Growth Medium (Angio-Proteomie; Cat #: cAP-02) at 37° C. under 5% CO2/95% air. When the cells were almost confluent, the medium was replaced with endothelial basal medium (Angio-Proteomie; Cat #: cAP-03) containing 0.5% fetal bovine serum (FBS; Life Technologies, Grand Island, N.Y.) about 8-12 hours before the experiment. No institutional approval was required for this study. The study was not pre-registered.
Western immunoblot analysis was performed by standard method using 50 μg of cell lysates. Following the SDS-PAGE electrophoresis, proteins were transferred from the gel onto the Polyvinylidene fluoride membrane (GE Healthcare Life Sciences, Marlborough, Mass.). Membranes were blocked with non-fat dry milk (Santa Cruz Biotechnology) or I-Block™ (ThermoFisher Scientific, Waltham, Mass.) for detection of phospho-proteins and incubated with primary antibodies, such as MBP (Santa Cruz Biotech Cat #: sc13914; RRID: AB_648798), phospho-(Ser^19) MLC (Abeam, Cat #: ab2480; RRID: AB_303094), MLC (Abeam, Cat #: ab79935; RRID:AB_1952220), P-actin (Santa Cruz Biotechnology, Cat #: sc-47778; RRID:AB_2714189), phospho-eNOS (Ser^1177) (Cell Signaling, Cat #: 9571; RRID: AB_329837, Danvers, Mass.), eNOS (Cell Signaling, Cat #: 32027), RhoA (Santa Cruz Biotechnology; Cat #: sc418; RRID: AB_628218) or 3-nitrotyrosine (Abeam, Cat #: ab61392; RRID: AB_942087). Following washing, the membranes were incubated with horseradish peroxidase conjugated secondary antibody (Jackson Immunoresearch Lab, West Grove, Pa.), washed and then incubated with ECL reagent (Amersham Life Science, Pittsbrugh, Pa.), and exposed to Amersham Hyperfilm ECL film

SMILES | numbers of total lymphocytes, CD3+ T cells, CD4+ T cells and CD8+ cells in blood (lymphocytes in blood) | spleen levels of protein-associated S-nitrosothiols [1] | thrombin-induced MLC phosphorylation (myosin light chain (MLC))
Cc1cc(C(N)=O)ccc1-n1c(CCC(=O)O)ccc1-c1ccc(-n2ccnc2)cc1 [N6022, reference compound] | did not affect | increased | –
N[C@@H](CCC(=O)N[C@@H](CSN=O)C(=O)NCC(=O)O)C(=O)O [GSNO, S-nitrosoglutathione] | no obvious effect | increased | attenuated
Cl.O=S(=O)([O-])c1ccc(-c2c3nc(c(-c4ccc(S(=O)(=O)O)cc4)c4ccc([nH]4)c(-c4ccc(S(=O)(=O)O)cc4)c4nc(c(-c5ccc(S(=O)(=O)O)cc5)c5ccc2[nH]5)C=C4)C=C3)cc1.[Fe] [FeTPPS, 5,10,15,20-Tetrakis(4-sulfonatophenyl)porphyrinato Iron (III), Cl, reference compound] | – | – | inhibited
